# Source: patent US20130178475A1, “sGC STIMULATORS” (IRONWOOD PHARMACEUTICALS, INC., priority 2010, published 2013)
# Biological target: T1, soluble guanylate cyclase (sGC) (Homo sapiens, UniProt Q02108+Q02153)
# T1 construct: endogenously expressing soluble guanylate cyclase (sGC); endogenous in cells; host or cells: HEK293
# T1 sequence (Q02153 1-619): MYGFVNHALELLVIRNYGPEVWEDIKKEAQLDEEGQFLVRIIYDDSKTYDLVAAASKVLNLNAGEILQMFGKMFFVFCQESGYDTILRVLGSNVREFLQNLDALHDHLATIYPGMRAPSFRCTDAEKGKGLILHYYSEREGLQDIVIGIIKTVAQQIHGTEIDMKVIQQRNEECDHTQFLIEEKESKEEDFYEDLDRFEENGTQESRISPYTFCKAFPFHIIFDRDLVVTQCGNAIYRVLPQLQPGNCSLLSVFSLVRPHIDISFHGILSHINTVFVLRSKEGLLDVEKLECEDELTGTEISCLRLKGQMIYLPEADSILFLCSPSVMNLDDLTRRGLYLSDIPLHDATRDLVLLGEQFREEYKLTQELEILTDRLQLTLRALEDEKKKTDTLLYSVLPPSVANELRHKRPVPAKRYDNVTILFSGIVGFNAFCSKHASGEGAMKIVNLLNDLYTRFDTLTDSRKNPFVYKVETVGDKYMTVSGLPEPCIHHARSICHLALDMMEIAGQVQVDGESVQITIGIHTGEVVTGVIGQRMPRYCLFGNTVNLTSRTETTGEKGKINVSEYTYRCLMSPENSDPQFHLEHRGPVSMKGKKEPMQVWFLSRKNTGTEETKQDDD
# T1 sequence (Q02108 1-690): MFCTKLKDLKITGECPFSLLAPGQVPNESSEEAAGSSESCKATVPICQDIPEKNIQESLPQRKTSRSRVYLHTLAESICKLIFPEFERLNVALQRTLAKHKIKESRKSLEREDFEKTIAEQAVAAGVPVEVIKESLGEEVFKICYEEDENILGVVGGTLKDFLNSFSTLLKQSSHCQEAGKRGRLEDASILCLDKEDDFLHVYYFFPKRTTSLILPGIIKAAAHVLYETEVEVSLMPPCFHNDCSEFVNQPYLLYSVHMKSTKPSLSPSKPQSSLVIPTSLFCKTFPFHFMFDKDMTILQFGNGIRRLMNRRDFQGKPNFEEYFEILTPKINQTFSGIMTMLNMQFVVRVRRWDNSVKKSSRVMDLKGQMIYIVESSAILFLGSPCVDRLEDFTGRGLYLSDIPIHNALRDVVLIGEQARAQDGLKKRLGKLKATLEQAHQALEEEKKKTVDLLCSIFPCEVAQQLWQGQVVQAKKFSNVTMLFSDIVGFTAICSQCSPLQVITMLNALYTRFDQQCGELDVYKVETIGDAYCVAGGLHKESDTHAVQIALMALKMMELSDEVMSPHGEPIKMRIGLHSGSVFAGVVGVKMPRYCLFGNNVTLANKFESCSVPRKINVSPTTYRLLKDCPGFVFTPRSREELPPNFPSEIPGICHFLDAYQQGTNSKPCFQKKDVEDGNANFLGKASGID
# Assay: sGC-HEK-cGMP assay
# Assay type: cell-based
# Settings: HEK293 cells, 10 min incubation, intracellular cGMP by LC/MS; for Increase in cGMP Concentration Tested at 10 μM in HEK Assay: test compound 10 μM; for Increase in cGMP Concentration Tested at 30 μM in HEK Assay: test compound 30 μM
# Procedure: Human embryonic kidney cells (HEK293), endogenously expressing soluble guanylate cyclase (sGC), were used to evaluate the activity of test compounds. Compounds stimulating the sGC receptor should cause an increase in the intracellular concentration of cGMP. […] Cells were then incubated for 15 minutes at 37° C. with 0.5 mM 3-isobutyl-1-methylxanthine (2004). Test article was then added to the assay mixture (2 μL) and incubated at 37° C. for 10 minutes. After the 10 minute incubation, the assay mixture was aspirated and 0.1M HCl (2004) was added to the cells. The plate was incubated at 4° C. for 30 minutes in the 0.1M HCl to stop the reaction and lyse the cells. The plates were then centrifuged at 1,200 g for 5 minutes at room temperature. Supernatants were collected and transferred to a new flat bottom 96 well plate for analysis. Vehicle controls were carried out using DMSO (1%). A known sGC stimulator, BAY 41-2272, was used as the positive control.
# Samples were diluted with an equal volume of 1 M Ammonium Acetate (pH 7) to neutralize samples for better chromatography. A 2×cGMP standard curve was prepared in 0.1 M HCl and then diluted with an equal volume of 1 M Ammonium Acetate, with the following final concentrations in nM: 1024, 512, 256, 128, 64, 32, 16, 8, 4, 2, 1.
# cGMP concentrations were determined from each sample using the LC/MS conditions (Table 2 below) and calculated standard curve. EC50 values were calculated from concentration-response curves generated with GraphPad Prism Software.
SMILES,Increase in cGMP Concentration Tested at 10 μM in HEK Assay,Increase in cGMP Concentration Tested at 30 μM in HEK Assay
Nc1nc(-c2nn(Cc3ccccc3F)c3c2CCCC3)ncc1-c1ccncc1 [Compound I-27],A (A represents no increase or an increase ranging from more than 0 fold to less than 5 fold),A (A represents no increase or an increase ranging from more than 0 fold to less than 5 fold)
CC1(C)C=Cc2c1c(-c1nccc(N)n1)nn2Cc1ccccc1F [Compound I-28],B (B represents an increase ranging from 5 fold to less than 10 fold),C (C represents an increase ranging from 10 fold to less than 20 fold)
CC1(C)C=Cc2c(c(-c3ncccn3)nn2Cc2ccccc2F)C1 [Compound I-29],A (A represents no increase or an increase ranging from more than 0 fold to less than 5 fold),B (B represents an increase ranging from 5 fold to less than 10 fold)
Fc1ccccc1Cn1nc(-c2ncccn2)c2c1CCC(F)(F)C2 [Compound I-30],A (A represents no increase or an increase ranging from more than 0 fold to less than 5 fold),A (A represents no increase or an increase ranging from more than 0 fold to less than 5 fold)
Nc1ccnc(-c2nn(Cc3ccccc3F)c3c2C2CCC3C2)n1 (centres unmarked) [Compound I-31],A (A represents no increase or an increase ranging from more than 0 fold to less than 5 fold),A (A represents no increase or an increase ranging from more than 0 fold to less than 5 fold)
CC1(C)Cc2c(c(-c3ncccn3)nn2Cc2ccccc2F)C(O)C1 (centres unmarked) [Compound I-32],A (A represents no increase or an increase ranging from more than 0 fold to less than 5 fold),A (A represents no increase or an increase ranging from more than 0 fold to less than 5 fold)
CC1(C)C=Cc2c(-c3ncccn3)nn(Cc3ccccc3F)c2C1 [Compound I-33],A (A represents no increase or an increase ranging from more than 0 fold to less than 5 fold),A (A represents no increase or an increase ranging from more than 0 fold to less than 5 fold)
Nc1nc(-c2nn(Cc3ccccc3F)c3c2CCC3)nc(N)c1/N=N/c1ccccc1 [Compound I-34],A (A represents no increase or an increase ranging from more than 0 fold to less than 5 fold),A (A represents no increase or an increase ranging from more than 0 fold to less than 5 fold)
Nc1nc(-c2nn(Cc3ccccc3F)c3c2CCC3)nc(N)c1N [Compound I-35],A (A represents no increase or an increase ranging from more than 0 fold to less than 5 fold),A (A represents no increase or an increase ranging from more than 0 fold to less than 5 fold)
COC(=O)Nc1c(N)nc(-c2nn(Cc3ccccc3F)c3c2CCC3)nc1N [Compound I-36],C (C represents an increase ranging from 10 fold to less than 20 fold),B (B represents an increase ranging from 5 fold to less than 10 fold)
"Fc1ccccc1Cn1nc(-c2cncnc2)c2c1CCCC2 [Compound I-47, 1-(2-fluorobenzyl)-3-(pyrimidin-5-yl)-4,5,6,7-tetrahydro-1H-indazole]",A (A represents no increase or an increase ranging from more than 0 fold to less than 5 fold),A (A represents no increase or an increase ranging from more than 0 fold to less than 5 fold)
"Fc1ccccc1Cn1nc(-c2cccnc2)c2c1CCCC2 [Compound I-48, 1-(2-fluorobenzyl)-3-(pyridin-3-yl)-4,5,6,7-tetrahydro-1H-indazole]",A (A represents no increase or an increase ranging from more than 0 fold to less than 5 fold),A (A represents no increase or an increase ranging from more than 0 fold to less than 5 fold)
"Fc1ccccc1Cn1nc(-c2ccncc2)c2c1CCCC2 [Compound I-49, 1-(2-fluorobenzyl)-3-(pyridin-4-yl)-4,5,6,7-tetrahydro-1H-indazole]",A (A represents no increase or an increase ranging from more than 0 fold to less than 5 fold),A (A represents no increase or an increase ranging from more than 0 fold to less than 5 fold)
"CS(=O)(=O)N1CCc2c(c(-c3ncccn3)nn2Cc2ccccc2F)C1 [Compound I-51, 1-(2-fluorobenzyl)-5-(methylsulfonyl)-3-(pyrimidin-2-yl)-4,5,6,7-tetrahydro-1H-pyrazolo[4,3-c]pyridine]",A (A represents no increase or an increase ranging from more than 0 fold to less than 5 fold),A (A represents no increase or an increase ranging from more than 0 fold to less than 5 fold)
"CC(=O)N1CCc2c(c(-c3ncccn3)nn2Cc2ccccc2F)C1 [Compound I-52, 1-(1-(2-fluorobenzyl)-3-(pyrimidin-2-yl)-6,7-dihydro-1H-pyrazolo[4,3-c]pyridin-5(4H)-yl)ethanone]",A (A represents no increase or an increase ranging from more than 0 fold to less than 5 fold),A (A represents no increase or an increase ranging from more than 0 fold to less than 5 fold)
"O=S(=O)(c1ccccc1)N1CCc2c(c(-c3ncccn3)nn2Cc2ccccc2F)C1 [Compound I-53, 1-(2-fluorobenzyl)-5-(phenylsulfonyl)-3-(pyrimidin-2-yl)-4,5,6,7-tetrahydro-1H-pyrazolo[4,3-c]pyridine]",A (A represents no increase or an increase ranging from more than 0 fold to less than 5 fold),A (A represents no increase or an increase ranging from more than 0 fold to less than 5 fold)
O=C(c1cccnc1)N1CCc2c(c(-c3ncccn3)nn2Cc2ccccc2F)C1 [Compound I-54],A (A represents no increase or an increase ranging from more than 0 fold to less than 5 fold),A (A represents no increase or an increase ranging from more than 0 fold to less than 5 fold)
O=C(c1ccncc1)N1CCc2c(c(-c3ncccn3)nn2Cc2ccccc2F)C1 [Compound I-55],A (A represents no increase or an increase ranging from more than 0 fold to less than 5 fold),A (A represents no increase or an increase ranging from more than 0 fold to less than 5 fold)
O=C(c1ccccn1)N1CCc2c(c(-c3ncccn3)nn2Cc2ccccc2F)C1 [Compound I-56],A (A represents no increase or an increase ranging from more than 0 fold to less than 5 fold),A (A represents no increase or an increase ranging from more than 0 fold to less than 5 fold)
